# Molecular target: T1, Human thrombin (Homo sapiens, UniProt P00734)
# T1 construct: purchased Centraal Laboratorium voor Bloedtransfusie, Amsterdam, The Netherlands
# Experiment: Anti-thrombin assay (hydrolysis of chromogenic substrate S-2238 by thrombin)
# Assay type: biochemical
# Settings: final concentration causing 50% inhibition of the maximum absorbance of the blank; substrate S-2238, TNP buffer, 37° C.
# Method: Thrombin (Factor IIa) is a factor in the coagulation cascade. The anti-thrombin activity of compounds of the present invention was assessed by measring spectrophotometrically the rate of hydrolysis of the chromogenic substrate s-2238 exterted by thrombin. Ths assay for anti-thrombin activity in a buffer system was used to assess the IC50 -value of a test compound.
# Test medium: Trometbine-NaCl-polyethylene glycol 6000 (TNP) buffer. Reference compomd: 12581 (Kabi) Vehicle: TNP buffer. Solubilisation can be assisted with dimethylsulphoxide, methanol, ethanol, acetonitrile or tert.-butyl alcohol which are without adverse effects in concentrations up to 2.5% in the final reaction mixture.
# Reagents*: 1. Tromethamine-NaCl (TN) buffer. Composition of the buffer: Tromethaine (Tris) 6.057 g (50 mmol), NaCl 5.844 g (100 mmol), water to 1 l. The pH of the solution is adjusted to 7.4 at 37° C. with HCl (10 mmol·l^-1). 2. TNP buffer: Polyethylene glycol 6000 is dissolved in TN buffer to give a concentration of 3 g·l^-1 3. S-2238 solution: One vial S-2238 (25 mg; Kabi Diagnostica, Sweden) is dissolved in 20 ml TN buffer to give a concentration of 1.25 mg·ml^-1 (2 mmol l^-1). 4. Thrombin solution: Human thrombin (16 000 nKat·vial^-1; Centraal Laboratorium voor Bloedtransfusie, Amsterdam, The Netherlands) is dissolved in TNP buffer to give a stock solution of 835 nKat·ml^-1. Immediately before use this solution is diluted with TNP buffer to give a concentration of 3.34 nKat·ml^-1.
# The test and reference compounds are dissolved in Milli-Q water to give stock concentrations of 10^-2 mol·l^31 1. Each concentration is stepwise diluted with the vehicle to give concentrations of 10^-3, 10^31 4 and 10^-5 mol·l^-1. The dilutions, including the stock solution, are used in the assay (fina concentrations in the reaction mixture: 3·10^-3; 10^31 3; […]; 3·10^-5; 10^-5; 3·10^-6 and 10^-6 mol·l^-1, respectively).
# At room temperature 0.075 ml and 0.025 ml test compound or reference compound solutions or vehicle are alternately pipetted into the wells of a microtiter plate and these solutions are diluted with 0.115 ml and […] TNP buffer, respectively. An aliquot of 0.030 ml S-2238 solution is added to each well and the plate is preheated and pre-incubated with shaking in an incubator (Amersham) for 10 min. at 37° C. Following pre-incubation the hydrolysis of S-2238 is started by addition of 0.030 ml thrombin solution to each well. The plate is incubated (with shaking for 30 s) at 37° C. Starting after 1 min of incubation, the absorbance of each sample at 405 nm is measured every 2 min. for a period of 90 min. using a kinetic microtiter plate reader (Twinreader plus, Flow Laboratories).
# All data are collected in an IBM personal computer using LOTUS-MEASURE. For each compound concentration (expressed in mol·l^-1 reaction mixture) and for the blank the absorbance is plotted versus the reaction time in min.
# Evaluation of responses: For each final concentration the maximum absorbance was calculated from the assay plot. The IC50 -value (final concentration, expressed in μmol·l^-1, causing 50% inhibition of the maximum absorbance of the blank) was calculated using the logit transformation analysis according to Hafier et al. (Arzneim.-Forsch.ADrug Res. 1977; 27(II): 1871-3).
row,Substance,IC50 [nM]
1,"3,3-Diphenyipropionyl--Pro--Ppa.PSI.[COCO]--OH [Example 15]",950
2,EthylSOx --D--Phe--Pr0--.PSI.[COCO]--NH2 [Example 38],1800
3,HOOC--CH2 --D--Cha--Pro--Ppa.PSI.[COCO]--NHMe [Example 31],245
4,HOOC--CH2 --D--Coa--Pro--Ppa--(2-thiazolyl) [Example 53],2600
5,HOOC--CH2 --D--Phe--Pro--Ppa.PSI.[COCO]--OH [Example 3],540
6,HOOC--CH2 --p--Cl--D--Phe--Pro--Ppa--(2-thiazolyl) [Example 47],2830
